{"source": "ChEMBL document CHEMBL3525899", "about": "“Identification of the cytochrome P450 and other enzymes involved in the in vitro oxidative metabolism of a novel antidepressant, Lu AA21004” (Drug Metab Dispos, 2012)", "key": {"[1]": {"target": "T1, Cytochrome P450 2D6 (Homo sapiens, UniProt P10635)", "T1 sequence (P10635 whole entry)": "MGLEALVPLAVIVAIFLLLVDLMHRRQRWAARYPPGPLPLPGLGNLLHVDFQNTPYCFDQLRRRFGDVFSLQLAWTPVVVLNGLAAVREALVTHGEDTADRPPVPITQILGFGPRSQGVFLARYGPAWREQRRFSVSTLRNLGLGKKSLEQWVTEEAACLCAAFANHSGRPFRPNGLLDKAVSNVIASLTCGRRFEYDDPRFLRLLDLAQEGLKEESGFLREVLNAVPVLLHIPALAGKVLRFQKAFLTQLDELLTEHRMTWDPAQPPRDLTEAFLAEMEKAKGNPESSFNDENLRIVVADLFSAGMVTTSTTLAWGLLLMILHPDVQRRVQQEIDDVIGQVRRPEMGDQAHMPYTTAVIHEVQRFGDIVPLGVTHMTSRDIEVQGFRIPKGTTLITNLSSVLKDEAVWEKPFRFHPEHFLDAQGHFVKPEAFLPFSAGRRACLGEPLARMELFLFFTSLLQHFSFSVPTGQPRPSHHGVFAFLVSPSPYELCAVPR", "assay": "Activity of human recombinant CYP2D6 expressed in microsomes isolated from human AHH-1 cells assessed as enzyme-mediated (3-methyl-4-(2-(piperazin-1-yl)phenylthio)phenyl)methanol formation at 8 to 50 uM after 120 mins by HPLC/MS-MS analysis in presence of NADPH regenerating system with NADP+", "assay_type": "ADME, cell-free", "settings": "2 h"}, "[2]": {"target": "Cytochrome P450 3A4 (Homo sapiens, UniProt P08684)", "sequence (P08684 whole entry)": "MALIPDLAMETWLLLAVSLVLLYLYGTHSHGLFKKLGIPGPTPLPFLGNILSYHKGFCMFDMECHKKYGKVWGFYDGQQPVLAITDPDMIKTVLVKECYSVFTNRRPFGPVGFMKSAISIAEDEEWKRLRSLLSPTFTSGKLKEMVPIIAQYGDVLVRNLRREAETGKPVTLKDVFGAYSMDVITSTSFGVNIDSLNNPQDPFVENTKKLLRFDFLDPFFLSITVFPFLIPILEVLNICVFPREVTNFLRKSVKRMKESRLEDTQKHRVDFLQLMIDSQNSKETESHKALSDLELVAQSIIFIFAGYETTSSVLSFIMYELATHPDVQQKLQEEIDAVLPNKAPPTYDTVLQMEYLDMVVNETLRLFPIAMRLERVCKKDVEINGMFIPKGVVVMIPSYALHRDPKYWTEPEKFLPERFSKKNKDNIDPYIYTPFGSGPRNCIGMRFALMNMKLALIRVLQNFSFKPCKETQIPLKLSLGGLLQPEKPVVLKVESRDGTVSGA", "assay": "Activity of human recombinant CYP3A4 expressed in microsomes isolated from human AHH-1 cells assessed as enzyme-mediated 1-(2-(2,4-dimethylphenylsulfinyl)phenyl)piperazine formation at 8 to 50 uM after 120 mins by HPLC/MS-MS analysis in presence of NADPH regenerating system with NADP+", "assay_type": "ADME, cell-free", "settings": "2 h"}, "[3]": {"target": "T1, Cytochrome P450 2D6", "assay": "Activity of human recombinant CYP2D6 expressed in microsomes isolated from human AHH-1 cells assessed as enzyme-mediated 3-(2,4-dimethylphenylthio)-4-(piperazin-1-yl)phenol formation at 8 to 50 uM after 120 mins by HPLC/MS-MS analysis in presence of NADPH regenerating system with NADP+", "assay_type": "ADME, cell-free", "settings": "2 h"}, "[4]": {"target": "T2, Flavin-containing monooxygenase 3 (Homo sapiens, UniProt P31513)", "T2 sequence (P31513 whole entry)": "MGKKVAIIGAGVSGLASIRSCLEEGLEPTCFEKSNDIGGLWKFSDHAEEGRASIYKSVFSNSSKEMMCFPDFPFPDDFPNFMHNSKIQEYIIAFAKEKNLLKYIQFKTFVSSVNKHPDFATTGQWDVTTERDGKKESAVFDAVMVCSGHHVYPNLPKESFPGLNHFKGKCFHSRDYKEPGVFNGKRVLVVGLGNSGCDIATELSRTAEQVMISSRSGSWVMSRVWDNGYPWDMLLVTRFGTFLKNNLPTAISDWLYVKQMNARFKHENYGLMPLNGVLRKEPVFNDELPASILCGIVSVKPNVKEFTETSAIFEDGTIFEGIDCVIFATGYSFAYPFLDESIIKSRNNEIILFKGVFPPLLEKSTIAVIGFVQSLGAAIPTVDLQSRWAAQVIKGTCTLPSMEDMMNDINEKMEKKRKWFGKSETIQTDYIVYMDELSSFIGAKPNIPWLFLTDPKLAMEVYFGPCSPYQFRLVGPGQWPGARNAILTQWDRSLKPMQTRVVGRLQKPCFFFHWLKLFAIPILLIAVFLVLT", "assay": "(§1) Activity of human recombinant FMO3 expressed in microsomes isolated from baculovirus infected insect BTI-TN-5B1-4 cells assessed as enzyme-mediated 3-methyl-4-(2-(piperazin-1-yl)phenylthio)benzoic acid formation at 8 to 50 uM after 120 mins by HPLC/MS-MS analysis in presence of NADPH regenerating system with NADP+", "assay_type": "ADME", "settings": "2 h"}, "[5]": {"system": "Liver microsome", "assay": "Drug metabolism in pooled human liver microsomes assessed as formation of 3-(2,4-dimethylphenylthio)-4-(piperazin-1-yl)phenol at 100 uM after 30 to 180 mins by HPLC/MS-MS analysis in presence of NADPH regenerating system with NADP+", "assay_type": "ADME"}, "[6]": {"system": "Liver microsome", "assay": "Drug metabolism in phenotyped human liver microsomes assessed as formation of 3-methyl-4-(2-(piperazin-1-yl)phenylthio)benzoic acid at 8 to 50 uM after 60 mins by HPLC/MS-MS analysis in presence of NADPH regenerating system with NADP+", "assay_type": "ADME", "settings": "1 h"}, "[7]": {"target": "T3, Cytochrome P450 2B6 (Homo sapiens, UniProt P20813)", "T3 sequence (P20813 whole entry)": "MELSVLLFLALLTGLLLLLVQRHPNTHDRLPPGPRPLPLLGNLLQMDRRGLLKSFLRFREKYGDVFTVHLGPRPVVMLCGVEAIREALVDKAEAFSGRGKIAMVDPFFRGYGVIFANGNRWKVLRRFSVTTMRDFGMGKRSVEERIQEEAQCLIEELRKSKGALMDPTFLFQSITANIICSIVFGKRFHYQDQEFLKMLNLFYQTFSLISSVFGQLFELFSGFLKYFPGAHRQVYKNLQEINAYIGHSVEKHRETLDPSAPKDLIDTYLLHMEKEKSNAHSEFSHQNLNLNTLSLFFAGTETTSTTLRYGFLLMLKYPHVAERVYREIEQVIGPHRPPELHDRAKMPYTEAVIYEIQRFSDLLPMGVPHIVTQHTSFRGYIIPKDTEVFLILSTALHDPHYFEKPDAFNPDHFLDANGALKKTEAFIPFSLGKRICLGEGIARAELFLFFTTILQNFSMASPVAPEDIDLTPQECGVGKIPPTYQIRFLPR", "assay": "Activity of human recombinant CYP2B6 expressed in microsomes isolated from human AHH-1 cells assessed as enzyme-mediated 3-(2,4-dimethylphenylthio)-4-(piperazin-1-yl)phenol formation at 8 to 50 uM after 120 mins by HPLC/MS-MS analysis in presence of NADPH regenerating system with NADP+", "assay_type": "ADME, cell-free", "settings": "2 h"}, "[8]": {"target": "T2, Flavin-containing monooxygenase 3", "assay": "as §1, with “4-(2-(2,4-dimethylphenylthio)phenyl)piperazin-1-ol” for “3-methyl-4-(2-(piperazin-1-yl)phenylthio)benzoic acid”", "assay_type": "ADME", "settings": "2 h"}, "[9]": {"system": "Liver microsome", "assay": "Drug metabolism in pooled human liver microsomes at 100 uM after 30 to 180 mins by HPLC/MS-MS analysis in presence of NADPH regenerating system without NADP+", "assay_type": "ADME"}}, "data": [{"smiles": "Br.Cc1ccc(Sc2ccccc2N2CCNCC2)c(C)c1", "note": "[VORTIOXETINE HYDROBROMIDE]", "values": [{"measurement": "Drug metabolism", "setting": "[1]", "result": "metabolite_detected"}, {"measurement": "Drug metabolism", "setting": "[2]", "result": "metabolite_detected"}, {"measurement": "Drug metabolism", "setting": "[3]", "result": "metabolite_detected"}, {"measurement": "Drug metabolism", "setting": "[4]", "result": "metabolite_not_detected"}, {"measurement": "Drug metabolism", "setting": "[5]", "result": "metabolite_detected"}, {"measurement": "Drug metabolism", "setting": "[6]", "result": "metabolite_detected"}, {"measurement": "Drug metabolism", "setting": "[7]", "result": "metabolite_not_detected"}, {"measurement": "Drug metabolism", "setting": "[8]", "result": "metabolite_not_detected"}, {"measurement": "Drug metabolism", "setting": "[9]", "result": "metabolite_not_detected"}]}]}
